Experimental data taken from patent US20170304400A1, “METHODS FOR PREVENTING FIBROSIS USING CXCR4 AND/OR CXCR7 BINDING AGENTS” (ViCapsys.Inc, priority 2016, published 2017).

Tested on: non-human primate (NHP)
Assay: Intraperitoneal implant of alginate microbeads in non-human primates: surgical inspection, lavage recovery and biopsy histopathology
Assay type: in vivo
Description: In the first non-human primate (NHP) study with alginate microbeads, two animals received intraperitoneal implants of ˜400,000 microbeads each of (1.6% calcium LVM) alginate containing either 1 μg/ml of recombinant human CXCL12 (“CXCL12^+”) or not (“CXCL12”). Microbeads were prepared using a vibrational encapsulation method using a 200 μm nozzle. Microbeads were on average 426-427 μm in diameter with an error of the mean of approximately 10-15%. The diameter was measured after 2 hours in culture media. Microbeads swell 30-40% after transfer into some media or after implantation. Median roundness was less than the desirable 0.90, ranging from 0.78 in the CXCL12^− microbeads (FIG. 1) to 0.80 in the CXCL12^+ (FIG. 2), but with a skew in roundness reflecting a small but significant number of non-round beads. Microbeads were delivered in a blinded manner to operators. During the implant, primate 0715 received the CXCL12^− implant; primate 1715 received the CXCL12^+ implant. Both animals were implanted using a minimally invasive technique featuring placement of beads in 30 cc of 300 mOsmolar calcium chloride solution in the intraperitoneal space and explanted surgically. Neither of the procedures was eventful. Both animals appeared healthy during the entire period of four weeks following the implantation procedure. The explant procedure for each animal involved surgical opening of the peritoneal cavity, visual inspection of all regions of the mesentery and abdomen/pelvis for bead position, lavage with 100 cc of N-saline to recover free microbeads and peritoneal fluid, and biopsy of tissues where microbeads appeared to be embedded in the tissue. Evaluation was done at 30, 90, and 180 days. Arrows point to adhesions.

For “CXCL12: chemokine CXCL12 (also called SDF-1); recombinant human CXCL12 used in the microbeads”, the “adhesions following surgery or explantation of the capsules” value (CXCL12 applied into the intraperitoneal cavity in alginate capsules) was “no adhesions”, the “long-term appearance of the peritoneum / surgical adhesions” value (later timepoints (day 90 and day 180), compared to CXCL12^- NHP) was “more normal and without surgical adhesions” and the “foreign body responses to embedded microbeads” value (through 90 days) was “spare embedded microbeads from foreign body responses”.
